# Reference: US20110177105A1, “Novel Selective Inhibitors of Ubiquitin Specific Protease 7, the Pharmaceutical Compositions Thereof and Their Therapeutic Applications” (priority 2010, published 2011)
# Molecular target: USP7 (Homo sapiens, UniProt Q93009)
# Assay: HA-Ub-VS labeling of active DUBs in HCT116 cell lysates
# Type: biochemical
# Set-up: endogenous in cells; host or cells: HCT116 (inducible USP7 shRNA line) cell lysate
# Settings: NEM 5 mM
# Excerpt: The C-terminally modified vinyl sulfone derivative of ubiquitin, UbVS, was clearly helpful for a direct visualization of active DUBs in cells. This tool, which binds covalently to the cysteine active site of deubiquitinating enzymes, was successfully applied to discover and characterize novel ubiquitin/ubiquitin-like proteases and to profile active deubiquitinating enzymes in normal, virus-infected, and malignant cells (Borodovsky et al., Chem Biol 2002, 9, 1149-1159, Hemelaar et al., Mol Cell Biol 2004, 24, 84-95, Ovaa et al., Proc Natl Acad Sci USA 2004 101, 2253-2258).
# The HA-Ub-VS probe (Hemagglutin tag-Ubiquitin-Vinyl Sulfone) was used in this study to directly visualize the activity of all deubiquitinating enzymes from cell lysates. This tool was used to evaluate the activity/specificity of our small molecule compounds on USP7 relative to all deubiquitinating enzymes active in physiological conditions.
# Inducible USP7 shRNA HCT116 cells (previously treated with or without Doxycycline (2 μg/ml) for 4 days) as well as HEK293 cells were harvested and lysed on ice with a non denaturating buffer containing Tris pH 7.4, 50 mM; NaCl, 150 mM; MgCl2, 5 mM; EDTA, 0.5 mM; DTT, 2 mM; ATP, 2 mM; NP40, 0.5% and glycerol, 10%. Samples were incubated at 4° C. for 1 hour and clarified. Proteins were then quantified by Bradford method (Bio-Rad Protein Assay). 25 μg of proteins from native cell lysates were treated with compounds of examples 14 and 5 (from 100 μM to 3 μM) or with NEM (N-Ethylmaleimide, a thiol-reactive compound, 5 mM) for 2 hours at room temperature. The ubiquitin labeling reaction was initiated by the addition of HA-Ub-VS (8 μg/ml) in labeling buffer (Tris pH 7.6, 50 mM; MgCl2, 5 mM; EDTA, 0.5 mM; DTT, 2 mM; ATP, 2 mM; sucrose, 250 mM) and incubated at room temperature for 30 min. Samples were next heated at 100° C. for 10 minutes and briefly sonicated. They were resolved by SDS-polyacrylamide gel electrophoresis (SDS-PAGE), transferred to a nitrocellulose membrane and probed with antibodies against USP7 (Bethyl Lab, A300-034A), HA (BabCO, MMS-101P), and actin (Sigma, A2066). Horseradish peroxidase (HRP)-conjugated anti-mouse (Jackson Laboratories, 115-035-003) or HRP-conjugated anti-rabbit (Cell Signaling, 7074) antibodies were used as secondary antibodies. Signals were detected by enhanced chemiluminescence (ECL; Amersham) according to the reagent manufacturer's instructions.
# Sequence of USP7 (Q93009 whole entry): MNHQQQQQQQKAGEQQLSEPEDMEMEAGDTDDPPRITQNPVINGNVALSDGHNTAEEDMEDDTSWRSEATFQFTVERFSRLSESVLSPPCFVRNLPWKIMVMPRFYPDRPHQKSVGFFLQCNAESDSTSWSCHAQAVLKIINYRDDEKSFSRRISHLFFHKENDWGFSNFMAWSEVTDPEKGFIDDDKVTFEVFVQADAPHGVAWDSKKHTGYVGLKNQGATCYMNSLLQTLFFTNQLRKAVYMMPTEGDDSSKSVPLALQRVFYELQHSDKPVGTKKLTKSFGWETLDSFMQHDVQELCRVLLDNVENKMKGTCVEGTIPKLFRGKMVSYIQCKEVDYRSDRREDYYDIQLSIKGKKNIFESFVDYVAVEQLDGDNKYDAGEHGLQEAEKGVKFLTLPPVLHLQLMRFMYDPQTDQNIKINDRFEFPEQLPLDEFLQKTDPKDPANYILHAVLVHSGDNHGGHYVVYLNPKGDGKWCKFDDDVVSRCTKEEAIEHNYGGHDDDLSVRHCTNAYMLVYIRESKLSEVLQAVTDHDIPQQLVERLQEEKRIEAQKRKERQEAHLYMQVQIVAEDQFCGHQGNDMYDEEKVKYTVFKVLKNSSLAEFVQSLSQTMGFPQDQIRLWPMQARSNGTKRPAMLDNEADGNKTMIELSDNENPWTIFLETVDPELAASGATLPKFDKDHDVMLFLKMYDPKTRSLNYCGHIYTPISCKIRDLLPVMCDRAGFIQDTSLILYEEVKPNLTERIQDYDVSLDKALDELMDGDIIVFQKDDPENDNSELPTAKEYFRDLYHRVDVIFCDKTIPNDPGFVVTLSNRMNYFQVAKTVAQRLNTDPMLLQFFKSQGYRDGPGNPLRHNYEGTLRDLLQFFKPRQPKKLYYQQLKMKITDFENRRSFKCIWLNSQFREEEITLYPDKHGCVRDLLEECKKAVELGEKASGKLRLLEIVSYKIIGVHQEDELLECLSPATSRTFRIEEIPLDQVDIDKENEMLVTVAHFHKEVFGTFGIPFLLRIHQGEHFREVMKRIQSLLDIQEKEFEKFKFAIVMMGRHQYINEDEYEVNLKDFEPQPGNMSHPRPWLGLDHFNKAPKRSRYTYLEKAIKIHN
smiles,measurement,value
"CCN1C(=O)C=CC1=O [NEM, N-Ethylmaleimide, reference compound]",HA-Ub-VS labeling of active DUBs,inhibited
